According to US6057371A, “Sigma receptor ligands and the use thereof” (Virginia Commonwealth University, priority 1992, dated 2000):
Read-outs that look alike come from different tables or passages of the source.

Legend:
sigma receptor = experiment: Sigma receptor binding, [^3 H]DTG, brain membranes (both sigma-1 and sigma-2 sites); design: species or system guinea pig
Procedure: Sigma receptor binding assays using guinea pig brain membrane homogenates and the radioligand [^3 H]DTG were conducted as described by Weber et al.. […] Briefly, frozen whole guinea-pig brains (Biotrol, Indianapolis, Ind.) were homogenized in 10 volumes (w/v) of ice-cold 320 mM sucrose using a Brinkman polytron. The homogenate was centrifuged at 1,000× g for 20 minutes at 4° C. The supernatant was centrifuged at 20,000× g for 20 minutes at 4° C. The resulting pellet was resuspended in 10 initial volumes of 50 mM Tris/HCl buffer at pH 7.4 and centrifuged at 20,000× g for 20 minutes at 4° C. The resulting pellet was resuspended in 5 initial volumes ice-cold 50 mM Tris/Hcl […], and the final volume was adjusted to yield a protein concentration of 3 mg/ml. Aliquots of 20-ml were stored at -70° C. until used, with no detectable loss of binding.
The protein concentration in the 1-ml final incubation volume was 800 ug/ml, corresponding to 32 mg of brain tissue (original wet weight) and to a tissue concentration within the linear range for specific binding. […] Incubations were terminated after 90 minutes at room temperature by addition of 4 ml of ice-cold 50 mM Tris/HCl (pH 7.4) and rapid filtration of the membrane suspension through Whatman GF/B glass-fiber filters under vacuum, using a 48-well cell harvester (Brandel). The filters were washed 2 times with 4 ml of 50 mM Tris/HCl (pH 7.4). Each filter was suspended in 10 ml Cytoscint (ICI), and radioactivity was measured by liquid scintillation spectrometry at a counting efficiency of approximately 50%. IC50 values were determined by non-linear regression analyis.
(§1) Further sigma receptor binding assays against [^3 H]DTG and 5HT-1A binding assays were conducted according to the procedure outlined in the previous examples.
Radioligand Binding. […] Briefly, membranes (P2 microsomal fraction) were diluted 1:3 with 50 mM Tris HCl (pH 7.4) and 0.4 mL was combined with 50 μL [^3 H]DTG (1-2 nM final concentration) and 50 μL of competing drug or buffer. After 90 min at room temperature, incubation was terminated by rapid filtration under vacuum through Whatman GF/B glass fiber filters using a Brandel 48-well cell harvester. Filters were washed three times with 5 mL of cold Tris HCl buffer and each filter was suspended in 5 mL of Cytoscint (ICN Biomedical). Radioactivity was measured by liquid scintillation spectrometry at a counting efficiency of 50%.

sigma-2 binding site = biological target: T1, sigma-2 binding site (Cavia porcellus, UniProt H0V073); experiment: biochemical; design: species or system guinea pig
T1 construct: Guinea pig whole membrane preparations (P2 microsomal fraction); from tissue; host or cells: guinea pig membranes (P2 microsomal fraction), as described by Weber et al; brain inferred from the sister test b489
T1 sequence (H0V073 1-176): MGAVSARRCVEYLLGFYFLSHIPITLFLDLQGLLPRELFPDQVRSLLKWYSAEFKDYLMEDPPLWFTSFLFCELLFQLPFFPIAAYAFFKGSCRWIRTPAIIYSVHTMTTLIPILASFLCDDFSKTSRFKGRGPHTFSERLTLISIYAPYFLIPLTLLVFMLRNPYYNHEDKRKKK
Procedure: For the standard equilibrium assay, the mixtures were incubated for 30 min. at room temperature, then filtered and the radioactivity determined as described above.

sigma-1 binding site = biological target: T2, sigma-1 binding site (Cavia porcellus, UniProt Q60492); experiment: biochemical; design: species or system guinea pig; conditions: for sigma-2/sigma-1 selectivity: Example 8
T2 construct: Guinea pig whole membrane preparations (P2 microsomal fraction); from tissue; host or cells: guinea pig membranes (P2 microsomal fraction), as described by Weber et al; brain inferred from the sister test b489
Procedure: [^3 H]DTG was purchased from DuPont/NEN.
The radioactivity on the filters was determined by scintillation spectrometry at an efficiency of about 50% using Cytoscint (ICN) scintillation fluid.

5-HT1A receptor = biological target: T3, 5-HT1A receptor (Rattus norvegicus, UniProt P19327); experiment: biochemical; type: binding; design: 47: 529-540 (1986); from tissue; host or cells: brain tissue, inferred from the cited method (rat frontal cortex); conditions: Table 6; read-out: 5HT-1A (nM) MEAN
T3 sequence (P19327 1-422): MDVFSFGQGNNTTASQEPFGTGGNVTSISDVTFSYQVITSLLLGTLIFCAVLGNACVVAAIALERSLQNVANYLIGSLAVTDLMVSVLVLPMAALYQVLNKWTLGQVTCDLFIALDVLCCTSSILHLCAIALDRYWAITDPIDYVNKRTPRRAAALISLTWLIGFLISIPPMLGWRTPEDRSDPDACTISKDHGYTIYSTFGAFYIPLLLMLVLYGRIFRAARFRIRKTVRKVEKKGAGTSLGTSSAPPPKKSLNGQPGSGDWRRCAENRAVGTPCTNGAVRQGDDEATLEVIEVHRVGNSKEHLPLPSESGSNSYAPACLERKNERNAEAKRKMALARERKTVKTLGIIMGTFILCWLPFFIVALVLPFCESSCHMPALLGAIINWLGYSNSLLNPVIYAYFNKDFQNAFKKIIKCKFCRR
Procedure: as §1

[1] = Table 10, read-out: SIGMA-2 KI vs. 3H-DTG + PENTAZOCINE MEAN
[2] = Table 10, read-out: SIGMA-1 KI vs. 3H-PENTAZOCINE MEAN
[3] = less than about 0.1, see Table 10
[4] = SIGMA-2 KI vs. 3H-DTG + PENTAZOCINE MEAN
[5] = SIGMA-1 KI vs. 3H-PENTAZOCINE MEAN
[6] = running text, Examples 5 and 6, read-out: sigma receptor Ki
[7] = Table 16, read-out: Sigma-1 IC50
[8] = Table 7, Phenyl-(CH2)x -NH--(CH2)y -Phenyl, read-out: Ki

T2 sequence (Q60492 whole entry): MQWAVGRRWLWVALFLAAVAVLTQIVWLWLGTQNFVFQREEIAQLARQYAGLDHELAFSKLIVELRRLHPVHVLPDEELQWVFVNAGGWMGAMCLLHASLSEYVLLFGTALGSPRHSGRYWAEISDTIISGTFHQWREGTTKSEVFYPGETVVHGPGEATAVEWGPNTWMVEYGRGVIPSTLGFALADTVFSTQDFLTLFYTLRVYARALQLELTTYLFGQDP

Row | SMILES | IC50 (sigma receptor; Table 6, [^3 H]DTG) [nM] | Ki (sigma-2 binding site; [1]) [nM] | Ki (sigma-1 binding site; [2]) [nM] | S1/S2 Ratio (sigma-1 binding site; Table 10, sigma-1/sigma-2) | IC50 ratio of sigma-1/sigma-2 (sigma-1 selective compounds) (sigma-1 binding site; [3]) | other results
1 | CN(CCCc1ccc2ccccc2c1)CCCc1ccc2ccccc2c1 [Compound 74] | 81.9 | 461 | 30 | 0.065 | less than 0.1 | 
2 | O=C(c1ccccc1)N1CCN(CCCCc2ccccc2)CC1 [Compound 80, N-4(4-phenylbutyl)-N'-benzoylpiperazine] |  | 965 | 71.8 |  |  | 
3 | CN1CCN(CCCCc2ccccc2)CC1 [Compound 106, N-(4-phenyl)-N'-methylpiperazine] | 49.8 | 899 | 19.3 | 0.022 | less than 0.1 | 
4 | CCCN1CCC[C@@H](c2cccc(O)c2)C1 [(-)3-PPP, reference compound] |  |  |  |  |  | Ki (sigma-2 binding site; [4]): 1260 nM; Ki (sigma-1 binding site; [5]): 312 nM; S1/S2 Ratio (sigma-1 binding site; Table 11, sigma-1/sigma-2): 0.248
5 | CN(C)CCCN1c2ccccc2Sc2ccc(Cl)cc21 [Chlorpromazine, reference compound] |  |  |  |  |  | Ki (sigma-2 binding site; [4]): 714 nM; Ki (sigma-1 binding site; [5]): 336 nM; S1/S2 Ratio (sigma-1 binding site; Table 11, sigma-1/sigma-2): 0.471
6 | c1ccc(CCCCCN2CCCCC2)cc1 [Compound 124, N-(5-phenylpentyl)piperidine] | 2.05 | 49.9 | 0.48 | 0.010 | less than 0.1 | sigma-2/sigma-1 selectivity (sigma-1 binding site): 100
7 | CN(C)CCCCCC1CCCCC1 [Compound 128, N,N-Dimethyl-5-cyclohexylpentylamine] | 2.87 | 195 | 0.26 | 0.001 | less than 0.1 | change in sigma receptor affinity vs. analog (sigma receptor; Examples 5 and 6, [^3 H]DTG): ~10 fold; Ki (sigma receptor; [6]): 2.6 nM; sigma-2/sigma-1 selectivity (sigma-1 binding site): 650; IC50 (sigma-1 binding site; [7]): 0.26 nM
8 | CC(C)N(CCNC(=O)CN1CCCC1=O)C(C)C [Pramiracetam, reference compound] |  |  |  |  |  | Ki (sigma-2 binding site; [4]): 10000 nM; Ki (sigma-1 binding site; [5]): 10000 nM; S1/S2 Ratio (sigma-1 binding site; Table 11, sigma-1/sigma-2): 1.000
9 | CN1CCN(CC/C=C/c2ccccc2)CC1 [Compound 103, N-(4-phenyl-3(E)-butenyl)-N'-methylpiperazine] | 75.2 | 2540 |  |  |  | IC50 ratio of sigma-1/sigma-2 (sigma-1 selective compounds) (sigma-1 binding site): less than 0.1; Ki (sigma-1 binding site; SIGMA-1 KI vs. 3H-P[…]): 28.7 nM; S1/S2 Ratio (sigma-1 binding site; guinea pig, microsomes): 0.011
10 | NCCCCCC1CCCCC1.O=C(O)C(=O)O [Compound 126, 5-Cyclohexylpentylamine Hydrogen Oxalate] | 219 | 2550 | 191 | 0.075 | less than 0.1 | Ki (sigma receptor; [6]): 200 nM; sigma-2/sigma-1 selectivity (sigma-1 binding site): 13; IC50 (sigma-1 binding site; [7]): 190 nM
11 | CCCN1CCC[C@H](c2cccc(O)c2)C1 [(+)3-PPP, reference compound] |  |  |  |  |  | Ki (sigma-2 binding site; [4]): 493 nM; Ki (sigma-1 binding site; [5]): 47.7 nM; S1/S2 Ratio (sigma-1 binding site; Table 11, sigma-1/sigma-2): 0.097
12 | c1ccc2cc(N3CCNCC3)ccc2c1 [Compound 60, N-(2-Naphthyl)piperazine] |  | 5600 | 220 |  |  | 
13 | CCC(Cc1ccccc1)NCCCCc1ccccc1 (stereo not shown) [Compound 101, N-(4-phenylbutyl)-1-phenyl-2-butylamine] | 15.7 | 104 | 2.7 | 0.026 | less than 0.1 | 
14 | CCCN1CCN(c2ccccc2)CC1 [Compound 64, N-Phenyl-N'-propylpiperazine] |  | 538 | 81.6 |  |  | IC50 (5-HT1A receptor): 784 nM
15 | CN(C)CCCCCc1ccccc1 [Compound 125, N,N-Dimethyl-5-phenylpentylamine] | 38.8 | 965 | 10.4 | 0.011 | less than 0.1 | Ki (sigma receptor; [6]): 35 nM; sigma-2/sigma-1 selectivity (sigma-1 binding site): 96
16 | c1ccc(CCCCCN2CCN(Cc3ccccc3)CC2)cc1 [Compound 129, N-Benzyl-N'-(5-phenylpentyl)-piperazine] | 2.29 | 11.3 | 0.41 | .036 |  | 
17 | COc1ccc2c(c1)[C@]13CCCC[C@@H]1[C@H](C2)N(C)CC3 [Dextromethorphan, reference compound] |  |  |  |  |  | Ki (sigma-2 binding site; [4]): 15000 nM; Ki (sigma-1 binding site; SIGMA-1 KI vs. 3H-P[…]): 522 nM; S1/S2 Ratio (sigma-1 binding site; guinea pig, microsomes): 0.035
18 | CN1CCN(CCCN2c3ccccc3Sc3ccc(C(F)(F)F)cc32)CC1 [Trifluperizine, reference compound] |  |  |  |  |  | Ki (sigma-2 binding site; [4]): 161 nM; Ki (sigma-1 binding site; [5]): 561 nM; S1/S2 Ratio (sigma-1 binding site; Table 11, sigma-1/sigma-2): 3.497
19 | c1ccc2cc(CCCNCCCc3ccc4ccccc4c3)ccc2c1 [Compound 70, Di-[3-(2'-Naphthyl)propyl)amine] | 116 | 10000 |  |  |  | IC50 (5-HT1A receptor): 3890 nM
20 | C[C@@H](Cc1ccccc1)N(CCCc1ccccc1)Cc1ccccc1 [Compound 134, N-Benzyl-N-(3-phenylpropyl)-1-phenyl-2-propylamine] |  |  |  |  |  | IC50 (sigma receptor): 199 nM; Ki (sigma-2 binding site; SIGMA-2 KI vs. 3H-DTG + P[…]): 471 nM; Ki (sigma-1 binding site; SIGMA-1 KI vs. 3H-P[…]): 128 nM; S1/S2 Ratio (sigma-1 binding site; guinea pig, microsomes): 0.272
21 | c1ccc(CCCNCCc2ccccc2)cc1 [Compound 87, N-(3-phenylpropyl)phenethylamine] | 21.8 | 90.1 | 11.3 |  |  | Ki (sigma receptor; [8]): 19 nM; Ki (sigma receptor; [6]): 19 nM; IC50 (sigma-2 binding site; Example 9, read-out: sigma-2 IC50): 90 nM; IC50 (sigma-1 binding site; Table 14, read-out: IC50 (nM) at sigma-1): 11.3 nM
22 | c1ccc(CCCN2CCCCC2)cc1 [Compound 140, N-(3-phenylpropyl)piperidine] | 69 | 147 | 48.9 |  |  | 
23 | CNCCCCCC1CCCCC1 [Compound 127, N-methyl-5-cyclohexylpentylamine] | 10.6 | 346 | 6.78 | 0.020 | less than 0.1 | Ki (sigma receptor; [6]): 10 nM; sigma-2/sigma-1 selectivity (sigma-1 binding site): 51; IC50 (sigma-1 binding site; [7]): 6.8 nM
24 | c1ccc(CCCCCNCCc2ccccc2)cc1 [Compound 89, N-(5-phenylpentyl)phenethylamine] | 2.74 | 14.6 |  |  |  | Ki (sigma receptor; [8]): 2.4 nM; Ki (sigma receptor; [6]): 2.4 nM; IC50 (sigma-2 binding site; Table 18, read-out: IC50 (nM) at sigma-2): 15 nM; IC50 (5-HT1A receptor): 106 nM
25 | CN1CCN(CC/C=C\c2ccccc2)CC1 [Compound 104, N-(4-phenyl-3(Z)-butenyl)-N'-methylpiperazine] | 76.2 | 1310 |  |  |  | IC50 ratio of sigma-1/sigma-2 (sigma-1 selective compounds) (sigma-1 binding site): less than 0.1; Ki (sigma-1 binding site; SIGMA-1 KI vs. 3H-P[…]): 28.7 nM; S1/S2 Ratio (sigma-1 binding site; guinea pig, microsomes): 0.022
26 | OCCN1CCN(CCCN2c3ccccc3Sc3ccc(Cl)cc32)CC1 [Perphenazine, reference compound] |  |  |  |  |  | Ki (sigma-2 binding site; [4]): 80.4 nM; Ki (sigma-1 binding site; [5]): 25.1 nM; S1/S2 Ratio (sigma-1 binding site; Table 11, sigma-1/sigma-2): 0.312
